In patent US6384015B1, “Selective lysis of malaria infected erythrocytes” (priority 1997, dated 2002):

Tested on: P. falciparum (New Guinean isolate D10)
Assay: Parasitemia assay in P. falciparum infected human erythrocytes
Format: cell-based
Description: P. falciparum (New Guinean isolate D10) cultures were grown and maintained substantially as described in Trager et al. (1976) Science 193, 673-675. Human type O+ blood was obtained from healthy donors. Magainin 2 (Matsuzaki et al., 1995, supra) was made by solid phase peptide synthesis. Parasitemia assays were performed substantially as described in Pasvol et al (1978) Ann Trop Med Parasitol 72, 87-92 and Magowan et al. (1995) Blood 86, 3196-3204. […] Each group was done in triplicate and 7,500 erythrocytes were counted for each data point. […]
FIG. 1 provides a graphical representation of the data showing the inhibition of parasitemia in infected human erythrocytes over the foregoing time courses and concentrations. In the figure, ● represents data points for the untreated cells, ▪ represents data points for cells treated at 10 uM, ▴ at 25 uM, and ▾ at 50 uM.

**Q.** With Magainin 2 as the substance, how does the parasitemia (10 uM magainin 2, Day 1) read?
**A.** 0.92

**Q.** And the parasitemia (10 uM magainin 2, Day 2)?
**A.** 1.88

**Q.** And the parasitemia (10 uM magainin 2, Day 3)?
**A.** 2.40

**Q.** And the parasitemia (10 uM magainin 2, Day 4)?
**A.** 4.52

**Q.** And the parasitemia (25 uM magainin 2, Day 1)?
**A.** 0.41

**Q.** And the parasitemia (25 uM magainin 2, Day 2)?
**A.** 1.88

**Q.** What about the parasitemia (25 uM magainin 2, Day 3) of the same substance?
**A.** 1.61

**Q.** And the parasitemia (25 uM magainin 2, Day 4)?
**A.** 3.68

**Q.** And the parasitemia (50 uM magainin 2, Day 1)?
**A.** 0.52

**Q.** And the parasitemia (50 uM magainin 2, Day 2)?
**A.** 1.43

**Q.** And the parasitemia (50 uM magainin 2, Day 3)?
**A.** 1.96

**Q.** And the parasitemia (50 uM magainin 2, Day 4)?
**A.** 2.87

**Q.** What about the “inhibition of parasitemia in infected human erythrocytes” value (10, 25 and 50 uM, over the time course) of the same substance?
**A.** dose and time dependent inhibitions of parasitemia

**Q.** And the “selective lysis of infected versus non-infected erythrocytes” value (P. falciparum infected blood-borne human erythrocytes, Examples 1 and 2)?
**A.** particular effective at selectively lysing P. falciparum infected blood-borne human erythrocytes as compared with non-infected cells
